≈ marks a conversion by molar mass, not a printed value.
Tests used:
Type in all cases: cell-based
[1] = tested on: S. aureus ATCC 49951 (NB01006); assay: MIC by broth microdilution, S. aureus NB01006; conditions: Staphylococcus aureus, ATCC49951, CAMHB, 35° C., 20 hours, read-out: Antibacterial activity (MIC) NB01006
Method in brief: (§1)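 CAMHB, ~5×10^5 CFU/mL, 2-fold serial dilutions (final DMSO 1%), 35° C, ambient air, 20 h. Read OD600 plus visual check; MIC = lowest conc. with no visible growth, μg/mL.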

[2] = tested on: S. aureus NB01006-AVR005, gyrA (S84L), grlA (580F) and grlB (E471K); assay: microbe, parasite or virus in culture; conditions: Staphylococcus aureus, 20 h, read-out: Antibacterial activity (MIC) NB01006-AVR005
Method in brief: as §1

[3] = tested on: S. aureus NB01080 fluoroquinolone-resistant clinical isolate; assay: MIC by broth microdilution, S. aureus NB01080; conditions: Staphylococcus aureus, CAMHB, 35° C., 20 hours, read-out: Antibacterial activity (MIC) NB01080
Method in brief: as §1

[4] = tested on: E. faecalis ATCC 29212 (NB04001); assay: MIC by broth microdilution, E. faecalis NB04001; conditions: Enterococcus faecalis, ATCC29212, CAMHB, 35° C., 20 hours, read-out: Antibacterial activity (MIC) NB04001
Method in brief: as §1

[5] = tested on: S. pneumoniae ATCC 25922 (NB07001); assay: MIC by broth microdilution, S. pneumoniae NB07001; conditions: Streptococcus pneumoniae, ATCC25922, 20 h, read-out: Antibacterial activity (MIC) NB07001
Method in brief: as §1

[6] = tested on: E. coli ATCC 25922 (NB27001); assay: MIC by broth microdilution, E. coli NB27001; conditions: Escherichia coli, ATCC25922, CAMHB, 35° C., 20 hours, read-out: Antibacterial activity (MIC) NB27001
Method in brief: as §1

[7] = tested on: P. aeruginosa NB52019, wild-type PAO1 strain; assay: MIC by broth microdilution, P. aeruginosa NB52019; conditions: Pseudomonas aeruginosa, CAMHB, 35° C., 20 hours, read-out: Antibacterial activity (MIC) NB52019
Method in brief: as §1

Row | Compound | MIC [1] [µg/mL] | MIC [2] [µg/mL] | MIC [3] [µg/mL] | MIC [4] [µg/mL] | MIC [5] [µg/mL] | MIC [6] [µg/mL] | MIC [7] [µg/mL]
1 | C[C@H]1COc2c(N3CCC(=C(Cl)CN)CC3)c(F)cc3cc(C(=O)O)c(=O)n1c23 [Example 1.10, (S)-10-(4-(2-amino-1-chloroethylidene)piperidin-1-yl)-9-fluoro-3-methyl-5-oxo-2,3-dihydro-5H-[1,4]oxazino[2,3,4-ij]quinoline-6-carboxylic acid] | 1 to 32 (≈ 2.37 to 75.9 µM) | > 32 | 1 to 32 (≈ 2.37 to 75.9 µM) | 1 to 32 (≈ 2.37 to 75.9 µM) | < 1 | > 32 | > 32
2 | CNC1([C@@H]2CCN(c3c(F)cc4cc(C(=O)O)c(=O)n5c4c3OC[C@@H]5C)C2)CC1 [Example 1.12, (S)-9-fluoro-3-methyl-10-((R)-3-(1-(methylamino)cyclopropyl)pyrrolidin-1-yl)-5-oxo-2,3-dihydro-5H-[1,4]oxazino[2,3,4-ij]quinoline-6-carboxylic acid] | < 1 | 1 to 32 (≈ 2.49 to 79.7 µM) | 1 to 32 (≈ 2.49 to 79.7 µM) | 1 to 32 (≈ 2.49 to 79.7 µM) | < 1 | 1 to 32 (≈ 2.49 to 79.7 µM) | > 32
3 | C[C@H]1COc2c(N3CC4CCCC4(N)C3)c(F)cc3cc(C(=O)O)c(=O)n1c23 (stereo partly drawn) [Example 1.13, (3S)-10-(3a-aminohexahydrocyclopenta [c]pyrrol-2(1H)-yl)-9-fluoro-3-methyl-5-oxo-2,3-dihydro-5H-[1,4]oxazino[2,3,4-ij]quinoline-6-carboxylic acid] | 1 to 32 (≈ 2.58 to 82.6 µM) | > 32 | > 32 | 1 to 32 (≈ 2.58 to 82.6 µM) | 1 to 32 (≈ 2.58 to 82.6 µM) | 1 to 32 (≈ 2.58 to 82.6 µM) | > 32
4 | C[C@H]1COc2c(N3CCN4C(=O)CCC4C3)c(F)cc3cc(C(=O)O)c(=O)n1c23 (stereo partly drawn) [Example 1.14, (3S)-9-fluoro-3-methyl-5-oxo-10-(6-oxohexahydropyrrolo[1,2-a]pyrazin-2(1H)-yl)-2,3-dihydro-5H-[1,4]oxazino[2,3,4-ij]quinoline-6-carboxylic acid] | < 1 | 1 to 32 (≈ 2.49 to 79.7 µM) | 1 to 32 (≈ 2.49 to 79.7 µM) | 1 to 32 (≈ 2.49 to 79.7 µM) | 1 to 32 (≈ 2.49 to 79.7 µM) | > 32 | > 32
5 | C[C@H]1COc2c(N3Cc4ccncc4C3)c(F)cc3cc(C(=O)O)c(=O)n1c23 [Example 1.15, (S)-10-(1,3-dihydro-2H-pyrrolo[3,4-c]pyridin-2-yl)-9-fluoro-3-methyl-5-oxo-2,3-dihydro-5H-[1,4]oxazino[2,3,4-ij]quinoline-6-carboxylic acid] | < 1 | 1 to 32 (≈ 2.62 to 83.9 µM) | 1 to 32 (≈ 2.62 to 83.9 µM) | 1 to 32 (≈ 2.62 to 83.9 µM) | < 1 | 1 to 32 (≈ 2.62 to 83.9 µM) | > 32
6 | C[C@H]1COc2c(N3CCC(F)(CN)C3)c(F)cc3cc(C(=O)O)c(=O)n1c23 (stereo partly drawn) [Example 1.16, (3S)-10-(3-(aminomethyl)-3-fluoropyrrolidin-1-yl)-9-fluoro-3-methyl-5-oxo-2,3-dihydro-5H-[1,4]oxazino[2,3,4-ij]quinoline-6-carboxylic acid] | < 1 | 1 to 32 (≈ 2.64 to 84.4 µM) | 1 to 32 (≈ 2.64 to 84.4 µM) | 1 to 32 (≈ 2.64 to 84.4 µM) | < 1 | 1 to 32 (≈ 2.64 to 84.4 µM) | > 32
7 | C[C@H]1COc2c(N3CCC4(CC3)CNC4)c(F)cc3cc(C(=O)O)c(=O)n1c23 [Example 1.17, (S)-9-fluoro-3-methyl-5-oxo-10-(2,7-diazaspiro[3,5]nonan-7-yl)-2,3-dihydro-5H-[1,4]oxazino[2,3,4-ij]quinoline-6-carboxylic acid] | > 32 | > 32 | > 32 | > 32 | > 32 | > 32 | > 32
8 | C[C@H]1COc2c(N3CC4CC4(CN)C3)c(F)cc3cc(C(=O)O)c(=O)n1c23 (stereo partly drawn) [Example 1.18] | < 1 | > 32 | > 32 | 1 to 32 (≈ 2.68 to 85.7 µM) | 1 to 32 (≈ 2.68 to 85.7 µM) | > 32 | > 32
9 | CC[C@H]1COc2c(N3CC[C@@H](C4(N)CC4)C3)c(F)cc3cc(C(=O)O)c(=O)n1c23 [Example 1.19, (S)-10-((R)-3-(1-aminocyclopropyl)pyrrolidin-1-yl)-3-ethyl-9-fluoro-5-oxo-2,3-dihydro-5H-[1,4]oxazino[2,3,4-ij]quinoline-6-carboxylic acid] | 1 to 32 (≈ 2.49 to 79.7 µM) | > 32 | 1 to 32 (≈ 2.49 to 79.7 µM) | 1 to 32 (≈ 2.49 to 79.7 µM) | < 1 | > 32 | > 32
10 | NC1([C@@H]2CCN(c3c(F)cc4cc(C(=O)O)c(=O)n5c4c3OCC5)C2)CC1 [Example 1.20, (R)-10-(3-(1-aminocyclopropyl)pyrrolidin-1-yl)-9-fluoro-5-oxo-2,3-dihydro-5H-[1,4]oxazino[2,3,4-ij]quinoline-6-carboxylic acid] | 1 to 32 (≈ 2.68 to 85.7 µM) | > 32 | 1 to 32 (≈ 2.68 to 85.7 µM) | 1 to 32 (≈ 2.68 to 85.7 µM) | 1 to 32 (≈ 2.68 to 85.7 µM) | > 32 | > 32
11 | C[C@@H]1COc2c(N3CC[C@@H](C4(N)CC4)C3)c(F)cc3cc(C(=O)O)c(=O)n1c23 [Example 1.21, (R)-10-((R)-3-(1-aminocyclopropyl)pyrrolidin-1-yl)-9-fluoro-3-methyl-5-oxo-2,3-dihydro-5H-[1,4]oxazino[2,3,4-ij]quinoline-6-carboxylic acid] | 1 to 32 (≈ 2.58 to 82.6 µM) | > 32 | > 32 | > 32 | 1 to 32 (≈ 2.58 to 82.6 µM) | > 32 | > 32
12 | C[C@@H]1Cn2c(=O)c(C(=O)O)cc3cc(F)c(N4CC[C@@H](C5(N)CC5)C4)c(c32)O1 [Example 1.22, (R)-10-((R)-3-(1-aminocyclopropyl)pyrrolidin-1-yl)-9-fluoro-2-methyl-5-oxo-2,3-dihydro-5H-[1,4]oxazino[2,3,4-ij]quinoline-6-carboxylic acid] | 1 to 32 (≈ 2.58 to 82.6 µM) | > 32 | 1 to 32 (≈ 2.58 to 82.6 µM) | 1 to 32 (≈ 2.58 to 82.6 µM) | 1 to 32 (≈ 2.58 to 82.6 µM) | > 32 | > 32
13 | C[C@H]1Cn2c(=O)c(C(=O)O)cc3cc(F)c(N4CC[C@@H](C5(N)CC5)C4)c(c32)O1 [Example 1.23, (S)-10-((R)-3-(1-aminocyclopropyl)pyrrolidin-1-yl)-9-fluoro-2-methyl-5-oxo-2,3-dihydro-5H-[1,4]oxazino[2,3,4-ij]quinoline-6-carboxylic acid] | > 32 | > 32 | > 32 | > 32 | 1 to 32 (≈ 2.58 to 82.6 µM) | 1 to 32 (≈ 2.58 to 82.6 µM) | > 32
14 | C[C@H]1CCOc2c(N3CC[C@@H](C4(N)CC4)C3)c(F)cc3cc(C(=O)O)c(=O)n1c23 [Example 1.24, (S)-11-((R)-3-(1-aminocyclopropyl)pyrrolidin-1-yl)-10-fluoro-4-methyl-6-oxo-3,4-dihydro-2H,6H-[1,4]oxazepino[2,3,4-ij]quinoline-7-carboxylic acid] | < 1 | 1 to 32 (≈ 2.49 to 79.7 µM) | 1 to 32 (≈ 2.49 to 79.7 µM) | < 1 | < 1 | 1 to 32 (≈ 2.49 to 79.7 µM) | > 32
15 | C[C@H]1COc2c(N3Cc4cccc(F)c4C3)c(F)cc3cc(C(=O)O)c(=O)n1c23 [Example 1.25, (S)-9-fluoro-10-(4-fluoroisoindolin-2-yl)-3-methyl-5-oxo-2,3-dihydro-5H-[1,4]oxazino[2,3,4-ij]quinoline-6-carboxylic acid] | < 1 | > 32 | < 1 | 1 to 32 (≈ 2.51 to 80.3 µM) | 1 to 32 (≈ 2.51 to 80.3 µM) | > 32 | > 32
16 | C[C@H]1COc2c(N3CCC(C)(CN)C3)c(F)cc3cc(C(=O)O)c(=O)n1c23 (stereo partly drawn) [Example 1.26, (3S)-10-(3-(aminomethyl)-3-methylpyrrolidin-1-yl)-9-fluoro-3-methyl-5-oxo-2,3-dihydro-5H-[1,4]oxazino[2,3,4-ij]quinoline-6-carboxylic acid] | 1 to 32 (≈ 2.66 to 85.2 µM) | > 32 | 1 to 32 (≈ 2.66 to 85.2 µM) | 1 to 32 (≈ 2.66 to 85.2 µM) | 1 to 32 (≈ 2.66 to 85.2 µM) | 1 to 32 (≈ 2.66 to 85.2 µM) | > 32
17 | C[C@H]1COc2c(N3CC[C@@H](C4(N(C)C)CC4)C3)c(F)cc3cc(C(=O)O)c(=O)n1c23 [Example 1.27, (S)-10-((R)-3-(1-(dimethylamino)cyclopropyl)pyrrolidin-1-yl)-9-fluoro-3-methyl-5-oxo-2,3-dihydro-5H-[1,4]oxazino[2,3,4-ij]quinoline-6-carboxylic acid] | 1 to 32 (≈ 2.41 to 77 µM) | > 32 | 1 to 32 (≈ 2.41 to 77 µM) | 1 to 32 (≈ 2.41 to 77 µM) | < 1 | 1 to 32 (≈ 2.41 to 77 µM) | > 32
18 | C[C@H]1COc2c(N3CCC4(CC3)CC(N)C4)c(F)cc3cc(C(=O)O)c(=O)n1c23 [Example 1.30, (S)-10-(2-amino-7-azaspiro[3.5]nonan-7-yl)-9-fluoro-3-methyl-5-oxo-2,3-dihydro-5H-[1,4]oxazino[2,3,4-ij]quinoline-6-carboxylic acid] | 1 to 32 (≈ 2.49 to 79.7 µM) | > 32 | > 32 | 1 to 32 (≈ 2.49 to 79.7 µM) | 1 to 32 (≈ 2.49 to 79.7 µM) | > 32 | > 32
